# Data published in PMC12535076, “Neurotherapeutic effects of Vutiglabridin as a Paraoxonase-2 modulator in preclinical models of Parkinson’s disease” (Molecular Neurodegeneration, 2025).
# pKd: −log10 of the molar value. “And” between values parts separate entries of the source, which are not always exact repeats. Equal values may be shown once.
# Tests used:
# [1] = molecular target: T1, recombinant human PON2 (rePON2) (Homo sapiens, UniProt Q15165); assay: Mass spectrometry-based binding assay; conditions: 10 nM Vuti incubated with rePON2 0-500 nM for 30 min, LC-MS/MS; read-out: dissociation constant (Kd)
# T1 construct: made in house; host or cells: E. coli BL21 (DE3), pET21b
# T1 sequence (Q15165 1-354 isoform Q15165-1): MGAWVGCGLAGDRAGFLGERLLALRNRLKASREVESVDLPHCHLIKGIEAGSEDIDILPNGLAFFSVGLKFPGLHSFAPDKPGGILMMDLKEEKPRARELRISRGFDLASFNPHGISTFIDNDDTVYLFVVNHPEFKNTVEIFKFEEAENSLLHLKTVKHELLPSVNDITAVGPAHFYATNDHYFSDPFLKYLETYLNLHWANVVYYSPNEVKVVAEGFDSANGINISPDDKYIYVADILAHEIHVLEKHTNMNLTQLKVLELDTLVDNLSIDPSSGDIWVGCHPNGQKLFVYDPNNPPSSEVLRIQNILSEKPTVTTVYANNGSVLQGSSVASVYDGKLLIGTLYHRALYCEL
# Excerpt: The codon-optimization of HsPON2 was for Escherichia coli system and synthesized according to the full-length open reading frame (GenBank accession No. AAC41995.1) from National Center for Biotechnology Information (NCBI; http://www.ncbi.nlm.nih.gov). The HsPON2 gene was amplified by a standard PCR method with a primer set (Forward; 5’-[…]-3’, Reverse; 5’-[…]-3’) and inserted into an expression vector (pET21b; New England Biolabs, USA) using NdeI and XhoI restriction enzyme sites (underlined). […] The recombinant construct was transformed into E. coli BL21 (DE3) competent cells. The transformed cells were activated overnight and transferred to 1 L of LB broth (BD bioscience, USA) with 100 µg/mL ampicillin (Duchefa Biochemie, The Netherlands) containing 0.1% glucose, and then incubated at 37 ℃ and 200 rpm in incubator (Vision Scientific, Korea) until reaching the optical density of 0.6–0.8 at 600 nm (OD600). […] The eluted HsPON2 protein was analyzed by a 12% SDS-PAGE and concentrated up to approximately 1 mL by 10 kDa filter-size amicon (Merck Millipore, USA). […]
# The method followed the concept of previously established protocol. […] The supernatant, which now contains rePON2-bound Vuti, was collected, dried, and re-suspended in acetonitrile, and the drug quantification was performed via LC-MS/MS analysis.
# [2] = test system: PON2-KD and wild-type C57BL/6 mice; assay: MPTP model in wild-type and PON2-knockdown mice; format: in vivo, mouse
# Description: Animals were allowed at least 1 week of acclimatization before being subjected to the study and were housed in a regulated environment with a 12-h/12-h light/dark cycle. Food and water were provided ad libitum. The animal experiment was carried out in accordance with the National Institutes of Health Guide for the Care and Use of Laboratory Animals (NIH Publications No. 80–23; revised 1996). All procedures for handling mice were carried out in accordance with “Principles of Laboratory Animal Care” and the Animal Care and Use guidelines of Kyung Hee University, Seoul, Korea (KHSASP-20-163).
# MPTP was dissolved in distilled water and injected intraperitoneally for five days from day 10 of the 21-day experiment period. Vuti or rasagiline was administered via oral gavage for 21 days. Vehicles for both Vuti and MPTP (distilled water) were administered to all mice. Mice were randomly divided for all studies. For the first set of studies shown in Fig. 3, each group consisted of 5 animals.
# To determine forelimb and hindlimb motor coordination and balance, we performed the rotarod test as described previously. Also, the pole test was performed to measure bradykinesia. […] On day 20, the time spent on the rotating bar at 20 rpm, which was defined as the latent period, was recorded. Performance was recorded as 300 s if the latent period exceeded 300 s. […] The time to land down and place four fee on the floor was recorded as the time for locomotion activity (T-LA). […]
# Free-floating brain sections were processed with the avidin-biotin peroxidase complex (ABC) complex (Vector Laboratories, Burlingame, CA, USA) method. […] The immunoperoxidase signals of TH was detected by incubating sections with 0.5 mg/ml 3,3′-diaminobenzidine (Sigma, St. Louis, MO, USA) in 0.1 M PB containing 0.003% H2O2. […] TH-positivity in the ST was measured by the optical density of TH-positive fibers at x40 magnification using ImageJ software (National Institutes of Health, Bethesda, MD, USA). […] (5 sections/series) were counted at x100 magnification as previously described. […]
smiles,measurement,setting,value
"CCOc1ccc(C2COc3c(ccc4c3CCC(C)(C)O4)C2)c(O)c1 (stereo not shown) [Vuti, Vutiglabridin]",pKd,[1],7.10 and 7.11
same,neuroprotective effects in PON2-KD mice,"[2]; PON2-KD mice, MPTP, Vuti 50 mg/kg oral for three weeks",absent
same,"motor behavior, dopaminergic neuronal cell count and fiber density without MPTP","[2]; non-MPTP-injected wild-type mice, 50 mg/kg Vuti, vs vehicle-only",no changes
same,MPTP-induced damage to motor behaviors and dopaminergic neurons in wild-type mice,"[2]; wild-type mice, MPTP, Vuti 50 mg/kg for three weeks",significantly attenuated
